Laboratory results reported in ChEMBL document CHEMBL1158021, “Okaramines H and I, new okaramine congeners, from aspergillus aculeatus” (1999).

Tested on: Bombyx mori
Assay: Insecticidal activity against third instar larvae of silkworm assessed per gm diet
Format: functional

| Structure (SMILES) | LD50 |
| --- | --- |
| C=CC(C)(C)N1c2ccccc2[C@]2(O)C[C@@H]3C(=O)N4/C=C\C(C)(C)c5[nH]c6ccccc6c5/C=C\4C(=O)N3[C@H]12 [OKARAMINE A] | 8 µg |
| CO[C@@H]1[C@]2(O)C(=O)N3/C=C\C(C)(C)c4[nH]c5ccccc5c4/C=C\3C(=O)N2[C@]23[C@H](C)C(C)(C)N2c2ccccc2[C@]13O [OKARAMINE B] | 0.2 µg |
| CC(C)=CCN1c2ccccc2[C@]2(O)C[C@@H]3C(=O)N4/C=C\C(C)(C)c5[nH]c6ccccc6c5/C=C\4C(=O)N3[C@H]12 [OKARAMINE H] | >100 µg |
| CC1(C)/C=C\N2C(=O)[C@H]3C[C@@]4(O)c5ccccc5N[C@H]4N3C(=O)/C2=C/c2c1[nH]c1ccccc21 [OKARAMINE I] | >100 µg |
